Results published in BigSolDB 2.1.

COc1cc(CO)ccc1O
solubility (mole fraction)
Conditions	in acetonitrile	in ethanol	in ethyl acetate	in isopentanol	in isopropanol	in n-butanol	in n-butyl acetate	in n-pentanol
293.15 K	0.0172	0.0442	0.0176	0.0225	0.0284	0.0234	0.0098	0.0214
303.15 K	0.0262	0.0627	0.0296	0.0302	0.0418	0.0393	0.0177	0.0338
313.15 K	0.0415	0.0936	0.0393	0.0447	0.0578	0.0538	0.027	0.049
323.15 K	0.0713	0.142	0.0682	0.0652	0.0957	0.0902	0.0428	0.0728
333.15 K	0.127	0.205	0.1	0.0912	0.149	0.134	0.0653	0.102
343.15 K	0.22	0.317	0.163	0.14	0.237	0.182	0.107	0.155
